{"source": "patent US20080287384A1", "about": "“Methods of Identifying Agents Having Antiangiogenic Activity” (priority 2005, published 2008)", "key": {"HMVECs [1]": {"test_system": "HMVECs", "experiment": "Endothelial cell migration assay (modified Boyden chamber)", "type": "cell-based, human", "experimental": "Endothelial Cell Migration Assay-The endothelial cell migration assay was performed as described in, […], Methods Mol Med. 78: 337-47 (2003), incorporated herein by reference. Briefly, HMVECs were starved overnight in media containing 0.1% bovine serum albumin (BSA), harvested, resuspended in DME with 0.1% BSA, plated on the bottom side of a modified Boyden chamber (Nucleopore Corporation, MD), and allowed to attach in the inverted chamber for 2 hours at 37° C. The chamber was then re-inverted, test substances added to the wells of the upper chamber and cells were allowed to migrate for four hours at 37° C. Membranes were recovered, fixed and stained and the number of cells that had migrated to the upper chamber per ten high power fields was counted. Background migration in DME+0.1% BSA was subtracted and the data reported as the number of cells migrated per 10 high power fields (400×). VEGF (R&D Systems, Minneapolis, Minn.) was used as a positive control at a concentration of 100 pg/ml."}, "HMVECs [2]": {"test_system": "HMVECs", "experiment": "Cell morphology / actin stress fiber staining", "type": "cell-based, human", "conditions": "treated or lentivirus-transduced"}, "Rap1": {"test_system": "Rap1", "type": "cell-based, human", "conditions": "HMVECs"}, "[3]": {"test_system": "HMVECs in scaffolds implanted in SCID mice", "experiment": "SCID mouse model of human angiogenesis, in vivo microvessel density", "conditions": "daily local injection for 5 days", "source_text": "A further assay for evaluating inhibition of tubule formation suitable for use in the presently described methods is an in vivo assay of microvessel density. In this regard, functional human microvessels can be engineered in SCID mice by implanting human dermal microvascular endothelial cells (HMVECs) seeded in biodegradable scaffolds, as described by Nor J E, et al., Lab Invest 81: 453-63 (2001), incorporated herein by reference. These cells organize into microvessels that anastomose with the host vasculature and transport mouse blood cells. Differences in vessel density are quantified post-euthanization by standard immunohistochemical techniques using, for example, anti-human CD31, and counting the number of CD31-positive vessels in a set number of random fields.\nSCID Mouse Model of Human Angiogenesis—Functional human microvessels were induced in severe combined immunodeficient (SCID) mice (CB-17 SCID; Taconic, Germantown, N.Y., USA). […]\nDetermination of In Vivo Microvessel Densities—Formalin fixed, paraffin-embedded implants were generated in order to quantify differences in vessel densities in the tumors of the treated and untreated animals. […] The number of CD31+blood vessels was counted in 10 random fields per sponge using an optical microscope (×400)."}, "endothelial cells": {"test_system": "endothelial cells", "conditions": "0.3 mM, low serum conditions, data not shown"}, "[4]": {"test_system": "age-related macular degeneration", "conditions": "1-2 drops of 0.1% w/v aqueous ophthalmic composition, each eye twice daily"}, "CREB, a substrate of PKA": {"test_system": "CREB, a substrate of PKA", "experiment": "Phospho-CREB western analysis", "conditions": "HMVEC lysates; forskolin given with IBMX per FIG. 5B legend"}}}
{"smiles": "C[C@@H](N)[C@H]1CC[C@H](C(=O)Nc2ccncc2)CC1", "note": "[Y-27632]", "values": [{"measurement": "effect on VEGF-induced chemotaxis", "setting": "HMVECs [1]", "value": "dose-dependent inhibition"}]}
{"smiles": "O=C(Nc1ncnc2c1ncn2[C@@H]1O[C@@H]2COP(=O)(O)O[C@H]2[C@H]1O)c1ccccc1", "note": "[6-Benz-cAMP, N^6-Benzoyladenosine-3′,5′cyclic monophosphate]", "values": [{"measurement": "effect on VEGF-induced chemotaxis", "setting": "HMVECs [1]", "value": "no effect"}]}
{"smiles": "CO[C@@H]1[C@@H]2OP(=O)(O)OC[C@H]2O[C@H]1n1c(Sc2ccc(Cl)cc2)nc2c(N)ncnc21", "note": "[8CPT-2Me-cAMP, 8-(4-chlorophenylthio)-2′-O-methyladenosine-3′,5′cyclic monophosophate]", "values": [{"measurement": "cell morphology", "setting": "HMVECs [2]", "value": "this effect could be mimicked"}, {"measurement": "concentration giving complete inhibition of VEGF-stimulated migration", "setting": "HMVECs [1]", "value": 2.5, "unit": "µM"}, {"measurement": "migration in the absence of VEGF (nonspecific/background migration)", "setting": "HMVECs [1]; no VEGF", "value": "no suppression"}, {"measurement": "Rap1 activation (GTP-bound Rap1)", "setting": "Rap1", "value": "robust stimulator"}, {"measurement": "inhibition of number of microvessels", "setting": "[3]; 0.03 μmoles per implant", "value": "roughly 50%"}, {"measurement": "inhibition of number of microvessels", "setting": "[3]; 0.3 μmoles per implant", "value": "greater than 90%"}, {"measurement": "apoptotic induction", "setting": "endothelial cells", "value": "did not detect apoptotic induction"}, {"measurement": "average area of vascularization relative to control mice", "setting": "mouse cornea; 0.6 μmoles", "value": "about half"}, {"measurement": "mice with detectable vascularization", "setting": "mouse cornea; 0.6 μmoles, control 6 out of 6", "value": "6 out of 8"}, {"measurement": "FGF-induced angiogenesis", "setting": "mouse cornea; 6 μmoles (higher dose)", "value": "effectively suppressed"}, {"measurement": "mice showing angiogenesis", "setting": "mouse cornea; 6 μmoles, control 6 out of 6", "value": "1 out of 10"}, {"measurement": "ocular function", "setting": "[4]", "value": "noticeable improvement"}, {"measurement": "CREB phosphorylation", "setting": "CREB, a substrate of PKA", "value": "did not induce significant CREB phosphorylation"}]}
